“Also recorded” adds a separate entry of the source.
Tests used:
Assay type in all cases: cell-based
[1] = target: T1, BRD4 (Homo sapiens, UniProt O60885); assay: CURE-PRO-mediated BRD4 degradation with VHL ligands, Western blot, MCF7 cells; parameters: endogenous in cells; details: MCF7, 24 h, 1:1 with 8305, 100 nM-10 μM
Experimental: (§1) All cell lines were purchased from ATCC or DSMZ and grown at 37° C. with 5% CO2. Human HeLa cells were cultured in complete growth medium (Dulbecco's modified Eagle's medium (DMEM) supplemented with 10% FBS); MCF7 cells were cultured in complete growth medium (Dulbecco's modified Eagle's medium (DMEM) supplemented with 10% FBS and 0.01 mg/ml human recombinant insulin (Sigma Aldrich); Namalwa and MOLM-13 cells were cultured in complete growth medium (RPMI 1640 medium supplemented with 10% FBS); MV-4-11 were cultured in complete growth medium (Iscove's Modified Dulbecco's medium, supplemented with 10% FBS); HCT116 cells were cultured in complete growth medium (McCoy's 5a Medium supplemented with 10% FBS). For cellular degradation of BRD4 studies, cells were seeded in a 12-well plate at 70-80% confluency, allowed to attach overnight, and incubated with the indicated compounds for the indicated time. When indicated, a 15-minute pretreatment with 10 μM pomalidomide, 10 μM VHL298, 10 μM Nutlin3a, 1 μM MG-132 or 1 μM Carfilzomib was performed before the addition of CURE-PROs. For washout studies, after CURE-PRO treatment, media was aspirated and incubated with complete medium for the indicated time before lysis.
HeLa, MCF7, or HCT116 cells (2.5-3×10^6) were treated for 24 hours with the indicated compounds solubilized in DMSO. The cells were washed in ice-cold PBS and were then lysed in RIPA lysis buffer (150 mM NaCl, 5 mM EDTA, 1% NP-40, 0.5% sodium deoxycholate, 0.1% SDS, 50 mM Tris, pH 8.0.) with Roche protease inhibitor complete cocktail and phosphatase inhibitors (10 mM sodium fluoride, 10 mM sodium pyrophosphate, 1 mM sodium orthovanadate and 20 mM β-glycerophosphate). The total protein concentrations were determined by Bradford Protein Assay and 10-20 μg of protein was loaded onto 4-15% Tris-Glycine gradient gels (Biorad). After standard gel electrophoresis, the separated proteins were transferred to PVDF membrane by wet transfer. The immunoblots were then blocked for 1 hour in 5% skim milk in TBST or 5% BSA in TBST, according to manufacturer's instructions, before an overnight incubation at 4° C. with indicated antibodies and membranes. Membranes were then incubated with the appropriate horseradish peroxidase-conjugated secondary antibodies (1:5,000 dilution) for 1 h at room temperature and the bands were visualized using the Clarity Max Western ECL Substrate (Biorad) and the ChemiDoc Imaging System (Biorad). Signal was detected with ECL Western Blotting Substrate (Pierce) and X-ray film processed with a Konica SRX-101 X-ray film processor or captured by Bio-Rad's Chemidoc Imaging system.
MCF7 cells (3×10^6) were treated for 24 h with the compounds solubilized in DMSO. Compounds were added at 100 nM-10 μM. […]

[2] = target: T1, BRD4; assay: CURE-PRO-mediated BRD4 degradation, Western blot, HeLa cells; parameters: endogenous in cells; host or cells: HeLa; details: 24 h
Procedure, shortened: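 HeLa cells treated 24 h with compounds in DMSO (1-10 μM, 10 μM or 100 μM each; paired monomers combined 1:1), optional 15-min pretreatment with pomalidomide, VHL298, Nutlin3a (10 μM) or MG-132/carfilzomib (1 μM). RIPA lysates, 10-20 μg protein immunoblotted for BRD4 with β-actin, ECL detection.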

[3] = tested on: caspase 3/7; assay: Caspase-Glo 3/7 assay, Namalwa cells; details: 24 hours, 1:1 with 8047
Experimental: Caspase-glo® assay (Promega) was conducted following the manufacturer's recommendations. Cells were seeded at a density of 5000 cells/well in a white 96 well plates (Corning, #3917) in a total volume of 100 μl with respective monomers, combinations of BRD ligands together with E3 ligase ligands or vehicle control treatment. After a 24 h incubation, 100 μl of the […] substrate was added per well and luminescence was read on a Spectramax M5 (Molecular Devices).
Namalwa cells (5×104) were treated for 24 hours with the compounds solubilized in DMSO. FIG. 57 is a bar graph depiction of fold increase of apoptosis assessed via caspase 3/7 activity using the Caspase-glo assay (Promega) described above.
Molm-13 (FIG. 76A) or Namalwa (FIG. 76B) cells (5×10^4) were treated for 24 hours with the compounds solubilized in DMSO in white 96 well plates (10 nM-10 μM solubilized in DMSO). FIG. 76 is a bar graph depiction of fold increase of apoptosis assessed via caspase 3/7 activity using the Caspase-glo assay (Promega) described above.

[4] = target: T1, BRD4; assay: CURE-PRO-mediated BRD4 degradation, WES (ProteinSimple), HeLa cells; parameters: endogenous in cells; host or cells: HeLa
Experimental: as §1
Anti-BRD4 (13440, 1:1,000 dilution for Western Blot and 1:25 dilution for ProteinSimple); Anti-BRD2 (5848 1:1,000 dilution for Western Blot and 1:25 dilution for ProteinSimple); β-Actin (3700, 1:2,000 dilution for Western Blot), β-Actin (4970, 1:50 dilution for ProteinSimple) anti-mouse IgG-HRP, and anti-rabbit IgG-HRP antibodies were purchased Cell Signaling Technology. Anti-GAPDH (600-401-A33, 1:100 dilution for ProteinSimple) was purchased from Rockland Immunochemicals, Inc. Anti-BRD3 (sc-81202, 1:200 dilution for Western Blot) was purchased from Santa Cruz Biotechnology.
WES Simple analysis was performed on WES system (ProteinSimple-Biotechne) according to the manufacturer's instructions. Total protein concentrations of cell lysates were determined by the Pierce BCA kit (Thermo Fisher). 3 μL of 0.3 μg/μL of the protein lysate was loaded onto a 12- to 230-kDa WES assay plate (ProteinSimple) where 300 nL sample was withdrawn through a capillary, subjected to electrophoretic separation of proteins by size, and followed by the simultaneous, HRP-based detection of proteins using the Anti-Rabbit Detection Module (Proteinsimple: #DM-001). The electropherograms were checked then the automatic peak detection was manually corrected if it was required.
HeLa cells (2.5×10^6) were treated for 4-24 hours with the compounds solubilized in DMSO. After 4 hours, indicated points were washed and cells were left in full growth media. Compounds were added at 10 μM each. […]

[5] = target: T1, BRD4; assay: Summary of BRD4 degradation by CURE-PRO pairs, estimated from Western Blot or WES (Proteinsimple); parameters: endogenous in cells; details: Table 1, CRBN ligand
Text: A black check mark indicates efficacy of 30% to 70% or higher protein degradation.

Structure (SMILES)	BRD4 degradation, with VHL ligand 8305 (Western blot) [1]	BRD4 degradation, BRD ligand with pomalidomide (no 8047) ([2]; 10 μM)	BRD4 degradation, co-treatment with CRBN ligand 8047 ([2]; 1:1 with 8047, 10 μM each, Western blot)	Caspase 3/7 activation, co-dosed with CRBN ligand 8047 [3]	BRD4 degradation, co-dosing with CRBN ligand 8047 (WES) ([4]; 10 μM each, 4-24 h with washout after 4 h, or 100 nM-10 μM)	Concentration from which BRD4 protein expression decreases, with 8047 (WES) ([4]; 24 h, tested 100 nM-10 μM each) [nM]	Degradation of BRD4 in combination with CRBN ligand [drawing 371] ([5]; second drawing (8047))	Degradation of BRD4 in combination with CRBN ligand [drawing 372] ([5]; third drawing (8066))
COc1ccc2c(c1)C(c1ccc(Cl)cc1)=N[C@@H](CC(=O)NCc1ccc(B(O)O)cc1)c1nnc(C)n1-2 [BRD-E9, (4-((2-((4S)-6-(4-chlorophenyl)-8-methoxy-1-methyl-4H-benzo[f][1,2,4]triazolo[4,3-a][1,4]diazepin-4-yl)acetamido)methyl)phenyl)boronic acid]	there is degradation of BRD4							
CCNC(=O)C[C@@H]1N=C(c2ccc(Sc3cccc(B(O)O)c3)cc2)c2cc(OC)ccc2-n2c(C)nnc21 [BRD-E52, (3-((4-((4S)-4-(2-(ethylamino)-2-oxoethyl)-8-methoxy-1-methyl-4H-benzo[f][1,2,4]triazolo[4,3-a][1,4]diazepin-6-yl)phenyl)thio)phenyl)boronic acid]		failed to induce BRD4 degradation	causes degradation of BRD4	demonstrates activation of caspase 3/7; also recorded: marked caspase activation	marked BRD4 degradation after 4h with sustained degradation for up to 8h after drugs are washed out	≥ 300	✓ (A black check mark indicates efficacy of 30% to 70% or higher protein degradation)	✓ (A black check mark indicates efficacy of 30% to 70% or higher protein degradation)

— US20230277553A1, “THERAPEUTIC COMPOSITION OF CURE-PRO COMPOUNDS FOR TARGETED DEGRADATION OF BET DOMAIN PROTEINS, AND METHODS OF MAKING AND USAGE” (CORNELL UNIVERSITY, priority 2020, published 2023)
